Experimental data: patent publication US8128963B2, “Methods for treating ischemic disorders using carbon monoxide” (The Trustees of Columbia University in the City Of New York, priority 1999, dated 2012)

Legend:
[1] = tested on: murine model of focal cerebral ischemia; assay: Murine focal cerebral ischemia, carbon monoxide inhalation and heme oxygenase blockade; format: in vivo, mouse; settings: for infarct volume / mortality: vs controls
Method: FIGS. 23A and 23B. FIG. 23A. The effect of carbon monoxide inhalation on cerebral infarct volumes. Mice were placed in bell jars, in which they were exposed to 0.1% CO for 12 hours. After this treatment, they were removed from the bell jars and subjected to intraluminal occlusion of the middle cerebral artery. At 24 hours, animals were sacrificed and infarct volumes measured by triphenyltetrazolium chloride (TTC) staining as shown in FIG. 25. Quantification of infarction volumes (mean±SEM) is expressed as the percent of infarction of the ipsilateral hemisphere.
Protoporphyrin preparation and administration. Tin protoporphyrin IX dichloride (20 mg, Porphyrin Products, Logan, Utah), zinc protoporphyrin IX (17 mg, Porphyrin Products, Logan, Utah), or biliverdin (18 mg, Porphyrin Products, Logan, Utah) was initially dissolved in dimethyl sulfoxide (2 mL). An aliquot of this solution (200 μL) was added to normal saline (9.8 mL) and this mixture was vortexed vigorously to yield a 2.7×10^−4 M solution of the protoporphyrin. The solution container was wrapped in aluminum foil to prevent photolysis of the protoporphyrin and stored at 4° C. until used.
Micro-osmotic pumps (#1003D, Alza Corp., Palo Alto, Calif.) were loaded with this protoporphyrin solution (91 μL/pump) and implanted subcutaneously in the anesthetized mouse via a 1 cm dorsal midline incision 24 h prior to the start of surgery. These pumps administer drug solution at a rate of 0.95±0.02. μL/h. At the time of surgery an additional dose of the protoporphyrin solution was administered (0.3 mL, i.v.) prior to insertion of the intralumenal occluding catheter. Each animal received the following total (injection+pump) drug amounts over the course of the study tin protoporphyrin (0.070 mg), zinc protoporphyrin (0.059 mg), or biliverdin (0.061 mg).

[2] = tested on: hypoxic HUVECs; assay: Immunofluorescent adherence assay, HL60 binding to hypoxic HUVECs; format: cell-based, human
Method: (§1) Hypoxia or free radicals induce P-selectin (PS) translocation to the endothelial cell (EC) surface, where it participates in neutrophil (PMN) adhesion during reperfusion. To explore a mechanism whereby nitrovasodilators may attenuate postischemic leukosequestration, we tested whether stimulating the NO/cGMP pathway could attenuate surface PS expression in hypoxic human umbillical vein ECs. […] Under similar conditions, addition of the NO donor 3-morpholino sydnonimine (SIN-1, 0.1 mM) or the cGMP analog 8-Bromo-cGMP (cGMP, 10 nM) caused a reduction in vWF release; Control vWF, 11±0.4 mU/mL; SIN-1, 9.1±0.3 mU/mL; cGMP, 9.7±0.2 mU/mL; p<0.005 for both SIN-1 or cGMP vs Control.

[3] = tested on: P-selectin; assay: Surface P-selectin expression on hypoxic HUVECs (radiolabeled anti-PS antibody binding); format: cell-based, human
Method: as §1

[4] = tested on: hypoxic human umbillical vein ECs; assay: vWF release from hypoxic HUVECs, NO/cGMP pathway; format: cell-based; settings: hypoxia pO2<20 Torr 4 hours; SIN-1 0.1 mM, 8-Bromo-cGMP 10 nM
Method: as §1

[5] = tested on: Human umbilical vein ECs; assay: vWF release from hypoxic endothelial cells (ELISA); format: cell-based
Method: Endothelial cell culture and exposure of cells to H or H/R. Human umbilical vein ECs were prepared from umbilical cords and grown in culture by the method of Jaffe (16) as modified by Thornton (17). Experiments utilized confluent ECs (passages 1-4) grown in Medium 199 supplemented with fetal bovine serum (15%; Gemini, Calabasas, Calif.), human serum (5%; Gemini), endothelial growth supplement (Sigma, St. Louis, Mo.), heparin (90 μg/ml; Sigma) and antibiotics, as described (17). When ECs achieved confluence, experiments were performed by placing cultures in an environmental chamber (Coy Laboratory Products, Ann Arbor, Mich.) which provided a controlled temperature (37° C.) and atmosphere with the indicated amount of oxygen, carbon dioxide (5%) and the balance made up of nitrogen. Use of this chamber for cell culture experiments has been described previously (15,18). During exposure of ECs to hypoxia (for a maximum of 16 hours), the oxygen tension in the culture medium was 14-18 torr and there was no change in the medium pH. Reoxygenation was performed by placing ECs in an ambient atmosphere containing carbon dioxide (5%) at 37° C.
Measurement of Weibel-Palade body exocytosis: ECs were plated into 24 well plates, rinsed 3 times with Hank's balanced salt solution, and then exposed to hypoxia or to normoxia for the indicated durations. For experiments in which vWF was measured, cells were maintained in serum-free medium. All other EC experiments were performed in the EC growth medium described above. For measurement of vWF, 200 μL aliquots of culture supernatant was removed at the indicated times, and a commercially available ELISA (American Diagnostica, Greenwich, Conn.), based on a polyclonal goat anti-human vWF antibody, was performed on duplicate specimens, with a standard curve generated using purified human vWF antigen supplied by the same vendor. EC P-selectin expression was determined by measuring the specific binding of a murine monoclonal anti-human P-selectin antibody (WAPS 12.2 clone, Endogen, Cambridge, Mass.; this is an IgGl which recognizes a calcium sensitive epitope and blocks P-selectin dependent neutrophil adhesion. Antibody was radiolabelled with ^125I by the lactoperoxidase method (19) using Enzymobeads (Bio-Rad, Hercules, Calif.), stored at 4° C. and used within one week of labelling. Binding assays were performed on HUVECs plated on 96 well plates, in which fresh M199 with 0.1% bovine serum albumin (Sigma, St. Louis, Mo.) was added immediately prior to each experiment. Cells were placed in a humidified environment at 37° C., and exposed to normoxia or H (in the presence or absence of 50 μM probucol, as indicated, Sigma) for the indicated durations. Cell monolayers were fixed for 15 min. with 1% paraformaldehyde^10 (cells exposed to H were fixed while still within the hypoxic environment), visually inspected to ensure that the monolayers remained intact, and washed twice with HBSS containing 0.5% bovine serum albumin (HBSS/A). Monolayers were then exposed to 10^5 cpm of ^125I-labelled anti-P-selectin antibody (WAPS 12.2) in the presence of 200 μg/mL of either unlabelled blocking antibody (WAPS 12.2) or nonblocking anti-P-selectin IgG of the same isotype (anti-GMP-140, AC1.2 clone, Becton-Dickinson, San Jose, Calif.) (20,21). After binding for 1 hour at 37° C., monolayers were washed 4 times with HBSS/A, and bound antibody was eluted with 1% triton X-100 in PBS (200 μL/well) and counted. […]

[6] = tested on: lung ischemia (lung preservation for transplantation); assay: Rat orthotopic left lung transplantation after 6 h preservation, donor CO pretreatment; format: in vivo
Method: Inbred male Lewis rats (250-300 gms) were used for all experiments according to a protocol approved by the Institutional Animal Care and Use Committee at Columbia University, in accordance with guidelines set forth by the American Academy for Accreditation of Laboratory Animal Care (AAALAC). Lung transplant experiments were performed in the following manner. Donor rats were given 500 units of heparin intravenously, and the pulmonary artery (PA) was flushed with a 30 mL volume of 4° C. preservation solution at a constant pressure of 20 mm Hg. When lungs are preserved in this manner, most of the infused flush solution comes out of a left atrial vent created in the lung donor, as well as out of the pulmonary veins following transection.
The left lung was then harvested, a cuff was placed on each vascular stump, a cylinder was inserted into the bronchus, and the lung was submerged for 6 hours in 4° C. preservation solution which was identical to the PA flush solution. Gender/strain/size matched rats were anesthetized, intubated, and ventilated with 100% O2 using a rodent ventilator (Harvard Apparatus, South Natick, Mass.). Orthotopic left lung transplantation was performed through a left thoracotomy using a rapid cuff technique for all anastomoses, with warm ischemic times maintained below 5 minutes. The hilar cross-clamp was released, re-establishing blood flow and ventilation to the transplanted lung. A snare was then passed around the right PA, and Millar catheters (2F; Millar Instruments, Houston, Tex.) were introduced into the main PA and the left atrium (LA). A Doppler flow probe (Transonics, Ithaca, N.Y.) was placed around the main PA.
Online hemodynamic monitoring was accomplished using MacLab and a Macintosh IIci computer. Measured hemodynamic parameters included LA and PA pressures (mm Hg), and PA flow (mL/min). Arterial oxygen tension (pO2, mm Hg) was measured during inspiration of 100% O2 using a model ABL-2 gas analyzer (Radiometer, Copenhagen, Denmark). PVRs were calculated as (mean PA pressure—LA pressure)/mean PA flow and expressed as mm Hg/mL/min. After baseline measurements, the native right PA was ligated and serial measurements taken every five minutes until the time of euthanasia at 30 minutes (or until recipient death).
At the indicated time before surgery (4,8, or 12 hours), rats were placed in a bell jar, and carbon monoxide was administered at various concentrations (0.01%, 0.03%, or 0.1%), with the remainder of the gas mixture consisting of room air. (The gas was passed through a jar of water prior to administration, in order to humidify it for animal comfort). At the indicated times following initiation of exposure, rats were anesthetized and lungs harvested as described above. These donor lungs were used in subsequent lung transplant experiments.

[7] = tested on: acute ischemic stroke; settings: cited from earlier work
[8] = CO-pretreated donor lungs vs untreated controls

With `C=CC1=C(C)C2=Cc3c(C=C)c(C)c4[n]3[Sn]([Cl])([Cl])[n]3c(c(C)c(CCC(=O)O)c3=CC3=NC(=C4)C(C)=C3CCC(=O)O)=CC1=N2` [tin protoporphyrin, Tin protoporphyrin IX dichloride] the infarct volume ([1]; heme oxygenase blockade) was “significantly larger infarct volumes”, the mortality ([1]; heme oxygenase blockade) was “increased mortality” and the neurological outcome ([1]; heme oxygenase blockade, vs untreated controls) was “worse neurological outcomes”. For the same compound, the “local CO levels by direct measurement” value ([1]; osmotic pump from 24 h before surgery plus i.v. dose) was “reduced local CO levels”.

In the case of `N=c1c[n+](N2CCOCC2)[n-]o1` [SIN-1, 3-morpholino sydnonimine], the “decrease of HL60 binding to hypoxic HUVECs vs controls” value [2] is reported as 53%, the “PS expression in calcium-free medium” value ([3]; ECs in calcium-free medium) is reported as “Neither SIN-1 nor cGMP could further reduce PS expression” and the “decrease of surface PS expression vs controls” value ([3]; hypoxia 4 hours, SIN-1 0.1 mM, 8-Bromo-cGMP 10 nM) is reported as 40%. The vWF release [4] was 9.1±0.3 mU/mL.

In the case of `C=CC1=C(C)c2cc3[n-]c(cc4[n-]c(cc5nc(cc1n2)C(C)=C5C=C)c(C)c4CCC(=O)O)c(CCC(=O)O)c3C.[Zn+2]` [zinc protoporphyrin IX], the infarct volume ([1]; heme oxygenase blockade) is reported as “increase” and the mortality ([1]; heme oxygenase blockade) is reported as “increase”.

For `CC(C)(Sc1cc(C(C)(C)C)c(O)c(C(C)(C)C)c1)Sc1cc(C(C)(C)C)c(O)c(C(C)(C)C)c1` [probucol], the “vWF levels following reoxygenation of hypoxic ECs” value ([5]; probucol 50 μM) was “blunt the further increase in vWF levels”, the “effect on H-mediated exocytosis of Weibel-Palade bodies (vWF release)” value ([5]; probucol 50 μM added at onset of H) was “no effect” and the “vWF in culture supernatant” value ([5]; probucol 50 μM added at onset of H, 6 hours of H) was 4.7±0.31×10^−3 U/ml.

With `C=CC1=C(C)/C(=C/C2=NC(=C\c3[nH]c(/C=C4\NC(=O)C(C)=C4C=C)c(C)c3CCC(=O)O)/C(CCC(=O)O)=C2C)NC1=O` [Biliverdin, biliverdin] the “effect on stroke outcome (cerebral protection)” value ([1]; osmotic pump plus i.v. dose, total 0.061 mg) was “without effect”.

For `[C-]#[O+]` [carbon monoxide], the level of protection ([6]; 0.01% dose) was “least protection”, the level of protection ([6]; 0.03% dose) was “intermediate level of protection” and the level of protection ([6]; 0.1% dose) was “best protection”. The survival of recipients ([6]; CO-pretreated donor lungs vs controls) was “Improved survival”, the “arterial oxygenation of recipients” value [6, 8] was “Improved arterial oxygenation” and the “pulmonary arterial blood flow” value [6, 8] was “Increased pulmonary arterial blood flow”. The pulmonary vascular resistance [6, 8] was “reduced pulmonary vascular resistance”, the “time dependence of protection” value ([6]; exposure 4, 8 or 12 hours before surgery) was “longer exposures appeared to provide the greatest protection” and the “mortality at 24 hours” value ([1]; 0.1% CO inhaled for 12 hours before MCA occlusion) was “reduces mortality”. For the same compound, the cerebral infarct volume ([1]; 0.1% CO inhaled for 12 hours before MCA occlusion, 24 hours) was “reduces infarct volumes” and the “inhaled CO dose providing optimal protection (infarct volume)” value ([1]; dose-response of inhaled CO) was 0.1%.

With `O=C(O)CN(CCOCCOCCN(CC(=O)O)CC(=O)O)CC(=O)O` [EGTA, ethyleneglycol bis (aminoethylether) tetraacetic acid] the “H-induced EC release of vWF” value ([5]; 0 mM Ca++ with 2 mM EGTA, 8 hrs) was “even more suppressive effect”.

In the case of streptokinase, the “rate of hemorrhagic transformation” value ([7]; given in the first several (<6) hours following stroke onset) is given as “up to 67%”, the 6 month mortality ([7]; outside the therapeutic window) is given as 73% and the 10 day mortality ([7]; outside the therapeutic window) is given as 34.0%.
